Patent US11878965B2, “Inhibitors of peptidylarginine deiminases” (Gilead Sciences, Inc., priority 2020, dated 2024)

Target: human PAD4 (Homo sapiens (Human), UniProt Q9UM07)
Assay: In Vitro PAD4 BAEE Biochemical Assay
Conditions: geometric mean of multiple experiments
Description: The PCR product was ligated into linearized pET-SUMO vector (Invitrogen, Carlsbad, CA), which is part of the Champion™ pET SUMO Protein Expression System. After sequence verification for the correct orientation, the pET-SUMO-hPAD4 expression plasmid was transformed into BL21(DE3) cells.
E. Coli BL21(DE3) cells were inoculated in LB medium with kanamycin at 37° C. until A600 nm reached about 0.5. Protein expression was induced by addition of 0.5 mM IPTG (final) and continued overnight at 16° C. at 220 rpm.
Cells were harvested by centrifugation at 5000 rpm for 10 minutes at 4° C. The pellet was resuspended in 300 ml lysis buffer (20 mM Tris-HCl, pH 8.0, 1 mM EDTA, 500 mM NaCl, 1 mM (tris(2-carboxyethyl)phosphine) (TCEP), 10% glycerol, and 1% Triton X100 and EDTA free protease inhibitor) and lysed by 3× passage through a microfluidizer (Microfluidics, Newton, MA) at 18,000 psi. The cell lysate was clarified by centrifugation at 30,000 rpm for 60 minutes at 4° C. The supernatant was applied to a 5 ml Ni-HP (GE HealthCare Cat #17524701) column preequilibrated in Ni-A buffer (20 mM Tris-HCl, pH 8.0, 20 mM Imidazole, 1 mM TCEP, 10% glycerol, and 400 mM NaCl). Bound protein was eluted with a 0-100% linear gradient of 100 mL Ni-B buffer (Ni A buffer+0.5 M Imidazole).
The His-Sumo tag was cleaved using sumo protease (Thermo Fisher Cat #: 12588018) while dialyzing in buffer (20 mM Tris-HCl, pH 8.0, 1 mM EDTA, 500 mM NaCl, 1 mM TCEP, 10% glycerol). The protein was then reloaded onto a Ni-HP column for a reverse purification step and recovered in flow through fraction. The protein with His-Sumo tag removed was then polished using a 16/60 Superdex-200 gel filtration column with gel filtration buffer (20 mM Tris pH 8.0, NaCl 400 mM and 1 mM TCEP). The fractions containing the protein were pulled and frozen at −80° C.
In Vitro PAD4 BAEE Biochemical Assay
The enzymatic activity of human PAD4 was monitored in a biochemical assay in the presence or absence of compounds using the small peptidyl arginine mimic BAEE (Nα-Benzoyl-L-arginine ethyl ester hydrochloride) as substrate. PAD4 activity led to deimination of BAEE and release of ammonia. Levels of ammonia were monitored by using an amine coupling reaction and were indicative of PAD4 enzymatic activity.
One hundred nanoliters of test compounds dissolved in DMSO at various concentrations were dispensed into a 384-well black OptiPlate using a Labcyte Echo instrument. Ten microliters of a solution of recombinant PAD4 and calcium chloride diluted in PAD4 assay buffer (50 mM MOPS [3-(N-morpholino) propanesulfonic acid], pH 7.6; 50 mM sodium chloride; 0.05% Tween-20; 2 mM dithiothreitol) was added to the compound-containing plate and was incubated for 30 minutes at 25° C. Ten microliters of a solution of BAEE (Sigma-Aldrich #B4500) diluted in PAD4 assay buffer was then added to start the reaction. Final concentrations were 5 nM PAD4, 2 mM calcium chloride, and 3 mM BAEE. The reaction mixture was incubated at 25° C. for 2 hours and was stopped with the addition of 10 microliters of a solution of 75 mM EDTA (Ethylenediaminetetraacetic acid) in PAD4 assay buffer. Thirty microliters of detection solution (5 mM o-phthalaldehyde, 50 mM MOPS [3-(N-morpholino) propanesulfonic acid], pH 7.6; 50 mM sodium chloride; 0.05% Tween-20; 5 mM dithiothreitol) was then added and the reaction was incubated for 1 hour at 25° C. The level of fluorescent thiol-substituted isoindole resulting from the reaction of ammonia, o-phthalaldehyde, and dithiothreitol was measured on an Envision plate reader (PerkinElmer) with 405 nm excitation and 535 nm emission.

[1] = human PAD4, BAEE substrate, 5 nM PAD4, 2 mM calcium chloride, 3 mM BAEE

Chain of human PAD4 (Q9UM07 2-663): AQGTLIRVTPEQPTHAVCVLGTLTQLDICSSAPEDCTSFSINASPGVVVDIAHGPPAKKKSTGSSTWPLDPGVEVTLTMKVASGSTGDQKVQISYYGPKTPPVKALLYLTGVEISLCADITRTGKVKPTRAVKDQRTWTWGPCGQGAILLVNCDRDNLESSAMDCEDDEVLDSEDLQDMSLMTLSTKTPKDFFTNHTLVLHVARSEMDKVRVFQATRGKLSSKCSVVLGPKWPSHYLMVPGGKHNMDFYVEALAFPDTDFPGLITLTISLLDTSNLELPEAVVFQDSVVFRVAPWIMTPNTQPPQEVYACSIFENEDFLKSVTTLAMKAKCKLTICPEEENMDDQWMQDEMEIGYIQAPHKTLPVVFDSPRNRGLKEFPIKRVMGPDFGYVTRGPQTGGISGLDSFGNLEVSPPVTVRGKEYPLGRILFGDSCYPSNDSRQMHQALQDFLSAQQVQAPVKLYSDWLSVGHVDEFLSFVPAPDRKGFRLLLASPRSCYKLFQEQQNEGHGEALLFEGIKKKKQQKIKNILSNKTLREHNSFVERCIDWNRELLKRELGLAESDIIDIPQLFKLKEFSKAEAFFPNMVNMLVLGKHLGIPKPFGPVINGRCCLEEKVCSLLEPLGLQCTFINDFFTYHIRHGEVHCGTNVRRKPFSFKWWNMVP

Row | Compound | IC50 [1] [nM] | IC50 (recombinant PAD4 5 nM, 2 mM calcium chloride, 3 mM BAEE substrate) [nM]
1 | COc1cc(C(=O)N2[C@H]3CC[C@@H]2[C@H](N)C3)cc2nc(-c3cc4cc(F)c(CCNC(=O)C56CC(F)(C5)C6)cc4n3CC3CC3)n(C)c12 [Example 146, N-((R)-2-(2-(5-((1R,2R,4S)-2-amino-7-azabicyclo[2.2.1]heptane-7-carbonyl)-7-methoxy-1-methyl-1H-benzo[d]imidazol-2-yl)-1-(cyclopropylmethyl)-5-fluoro-1H-indol-6-yl)ethyl)-3-fluorobicyclo[1.1.1]pentane-1-carboxamide] | 45.8 | 
2 | COc1cc(C(=O)N2CCC[C@@H](N)[C@H]2C)cc2nc(-c3cc4ccc(N(C)S(C)(=O)=O)nc4n3CC3CC3)n(C)c12 [Example 4, N-(2-(5-((2R,3R)-3-amino-2-methylpiperidine-1-carbonyl)-7-methoxy-1-methyl-1H-benzo[d]imimidazol-2-yl)-1-(cyclopropylmethyl)-1H-pyrrolo [2,3-b]pyridin-6-yl)-N-methylmethanesulfonamide] | 149 | 
3 | COc1cc(C(=O)N2CCCC3(CCCN3)C2)cc2nc(-c3cc4ccc(N(C(F)F)S(C)(=O)=O)nc4n3CC3CC3)n(C)c12 (stereo not shown) [Example 74, N-(1-(cyclopropylmethyl)-2-(7-methoxy-1-methyl-5-(1,7-diazaspiro[4.5]decane-7-carbonyl)-1H-benzo[d]imidazol-2-yl)-1H-pyrrolo[2,3-b]pyridin-6-yl)-N-(difluoromethyl) methanesulfonamide] | 50000 | 
4 | COc1cc(C(=O)N2C[C@H](N)CC[C@@H]2C)cc2nc(-c3cc4ccc(N5CCCCC5=O)nc4n3CC3CC3)n(C)c12 [Example 272, 1-(2-(5-((2S,5R)-5-amino-2-methylpiperidine-1-carbonyl)-7-methoxy-1-methyl-1H-benzo[d]imidazol-2-yl)-1-(cyclopropylmethyl)-1H-pyrrolo[2,3-b]pyridin-6-yl)piperidin-2-one] | 785 | 
5 | COc1cc(C(=O)N2C[C@H](N)CC[C@@H]2C)cc2nc(-c3cc4ccc(N(C(F)F)S(C)(=O)=O)nc4n3CC3CC3)n(C3CC3)c12 [Example 42, N-(2-(5-((2S,5R)-5-amino-2-methylpiperidine-1-carbonyl)-1-cyclopropyl-7-methoxy-1H-benzo[d]imidazol-2-yl)-1-(cyclopropylmethyl)-1H-pyrrolo [2,3-b]pyridin-6-yl)-N-(difluoromethyl) methanesulfonamide] | 221 | 
6 | COC(=O)N(C)c1ccc2cc(-c3nc4cc(C(=O)N5C[C@H](N)[C@@H]6CC[C@H]5C6)cc(OC)c4n3C)n(CC3CC3)c2n1 [Example 287, methyl (2-(5-((1S,4R,5R)-4-amino-2-azabicyclo[3.2.1]octane-2-carbonyl)-7-methoxy-1-methyl-1H-benzo[d]imidazol-2-yl)-1-(cyclopropylmethyl)-1H-pyrrolo[2,3-b]pyridin-6-yl)(methyl)carbamate] |  | 106
7 | COc1cc(C(=O)N2CCC[C@@H](N)C2)cc2nc(-c3cc4ccc([C@@H](C)NC(C)=O)nc4n3CC3CC3)n(C3CC3)c12 [Example 132, N-((R)-1-(2-(5-((R)-3-aminopiperidine-1-carbonyl)-1-cyclopropyl-7-methoxy-1H-benzo[d]imidazol-2-yl)-1-(cyclopropylmethyl)-1H-pyrrolo[2,3-b]pyridin-6-yl)ethyl)acetamide] | 70.7 | 
8 | COc1cc(C(=O)N2C[C@H](N)CCN2C)cc2nc(-c3cc4ccc([C@@H](C)NC(=O)c5cccc(F)c5C)nc4n3CC3CC3)n(C)c12 [Example 212, N-((R)-1-(2-(5-((R)-5-amino-2-methylhexahydropyridazine-1-carbonyl)-7-methoxy-1-methyl-1H-benzo[d]imidazol-2-yl)-1-(cyclopropylmethyl)-1H-pyrrolo[2,3-b]pyridin-6-yl)ethyl)-3-fluoro-2-methylbenzamide] | 170 | 
9 | COc1cc(C(=O)N2CCC[C@@H](N)C2)cc2nc(-c3cc4ccc(N5[C@@H](C)CCCS5(=O)=O)nc4n3CC3CC3)n(C)c12 [Example 105, ((R)-3-aminopiperidin-1-yl)(2-(1-(cyclopropylmethyl)-6-((S)-3-methyl-1,1-dioxido-1,2-thiazinan-2-yl)-1H-pyrrolo[2,3-b]pyridin-2-yl)-7-methoxy-1-methyl-1H-benzo[d]imidazol-5-yl) methanone] | 29.6 | 
10 | COc1cc(C(=O)N2C[C@H](N)CCN2C)cc2nc(-c3cc4ccc([C@@H](C)NC(=O)c5ccc(F)cc5)nc4n3CC3CC3)n(C)c12 [Example 155, N-((R)-1-(2-(5-((R)-5-amino-2-methylhexahydropyridazine-1-carbonyl)-7-methoxy-1-methyl-1H-benzo[d]imidazol-2-yl)-1-(cyclopropylmethyl)-1H-pyrrolo[2,3-b]pyridin-6-yl)ethyl)-4-fluorobenzamide] | 165 | 
11 | COc1cc(C(=O)N2CCC[C@@H](N)C2)cc2nc(-c3cc4ccc(N(CC5CCC5)S(C)(=O)=O)nc4n3CC3CC3)n(C)c12 [Example 21, (R)-N-(2-(5-(3-aminopiperidine-1-carbonyl)-7-methoxy-1-methyl-1H-benzo[d]imidazol-2-yl)-1-(cyclopropylmethyl)-1H-pyrrolo[2,3-b]pyridin-6-yl)-N-(cyclobutylmethyl) methanesulfonamide] | 50000 | 
12 | COc1cc(C(=O)N2C[C@H](N)CCN2C)cc2nc(-c3cc4ccc([C@@H](C)NC(=O)c5c(F)cccc5C(F)(F)F)nc4n3CC3CC3)n(C)c12 [Example 198, N-((R)-1-(2-(5-((R)-5-amino-2-methylhexahydropyridazine-1-carbonyl)-7-methoxy-1-methyl-1H-benzo[d]imidazol-2-yl)-1-(cyclopropylmethyl)-1H-pyrrolo[2,3-b]pyridin-6-yl)ethyl)-2-fluoro-6-(trifluoromethyl)benzamide] | 166 | 
13 | COc1cc(C(=O)N2C[C@H](N)CCN2C)cc2nc(-c3cc4ccc([C@@H](C)NC(=O)c5c(F)cc(F)cc5F)nc4n3CC3CC3)n(C)c12 [Example 157, N-((R)-1-(2-(5-((R)-5-amino-2-methylhexahydropyridazine-1-carbonyl)-7-methoxy-1-methyl-1H-benzo[d]imidazol-2-yl)-1-(cyclopropylmethyl)-1H-pyrrolo[2,3-b]pyridin-6-yl)ethyl)-2,4,6-trifluorobenzamide] | 87.4 | 
14 | COc1cc(C(=O)N2C[C@H](N)CC[C@@H]2C)cc2nc(-c3cc4ccc(-c5cccnc5N5CCNCC5)nc4n3CC3CC3)n(C)c12 [Example 264, ((2S,5R)-5-amino-2-methylpiperidin-1-yl)(2-(1-(cyclopropylmethyl)-6-(2-(piperazin-1-yl)pyridin-3-yl)-1H-pyrrolo[2,3-b]pyridin-2-yl)-7-methoxy-1-methyl-1H-benzo[d]imidazol-5-yl)methanone] | 1870 | 
15 | COc1cc(C(=O)N2[C@H]3CC[C@@H]2[C@H](N)C3)cc2nc(-c3cc4ccc([C@H]5CCCN5C(C)=O)nc4n3CC3CC3)n(C)c12 [Example 247, 1-((R)-2-(2-(5-((1R,2R,4S)-2-amino-7-azabicyclo[2.2.1]heptane-7-carbonyl)-7-methoxy-1-methyl-1H-benzo[d]imidazol-2-yl)-1-(cyclopropylmethyl)-1H-pyrrolo[2,3-b]pyridin-6-yl)pyrrolidin-1-yl)ethan-1-one] | 36.7 | 
16 | COc1cc(C(=O)N2C[C@H](N)CCN2C)cc2nc(-c3cc4ccc([C@@H](C)NC(=O)c5nccc(C)n5)nc4n3CC3CC3)n(C)c12 [Example 181, N-((R)-1-(2-(5-((R)-5-amino-2-methylhexahydropyridazine-1-carbonyl)-7-methoxy-1-methyl-1H-benzo[d]imidazol-2-yl)-1-(cyclopropylmethyl)-1H-pyrrolo[2,3-b]pyridin-6-yl)ethyl)-4-methylpyrimidine-2-carboxamide] | 74.9 | 
